Entries after “also recorded” stand apart in the source; their conditions may differ. Read-outs that look alike come from different tables or passages of the source.

Usually fraction unbound stands for the share of the substance not bound to proteins or other matrix. Lower therefore signals extensive binding.

The format of data set [1] is in vivo, male Wistar rats. Conditions: 2 mg AA-I subcutaneously; for Amount in the 24 hr urine sample: Wistar rats; for Average concentration in 24-hour collected urine: five rats, standard deviation in parentheses; for Presence in collected rat urine: 24 hr urine.
Data set [2] is described as follows: Isolated perfused rat kidney. It counts as in vitro ADME, Sprague-Dawley rats. Particulars: for Average amount in perfusate per 10-min period / Average amount in urine per 10-min period: 40–50, 50–60, 60–70 and 70–80 min periods, S.D. in parenthesis; for Concentration in perfusate / Concentration in urine: 70–80 min period, perfused with 50 µM AA-I; for Average excretion ratio (XR): mean (S.D.) of 7 collection periods 10–80 min, XR = Cl/(fu × GFR), Cl = Cu × UFR/Cp; for Concentration in the urines: 30–80 min; for Concentration in the urines / Concentration of AA-I in the urines: more or less constant; for XR (excretion ratio = CLR/CLFILT) / CLFILT (filtration clearance) / Cumulative excretion (urinary) / Kidney accumulation / CL renal at 50 µM: 50 µM dose; for XR (excretion ratio = CLR/CLFILT): AUC method; for CLFILT (filtration clearance): GFR × fu; for Cumulative excretion (urinary) / Kidney accumulation: at 80 min post-dose; for Cumulative AA-I excretion in the urine (Xu): eight periods (0–80 min); for Concentration of AA-I in the urines: last periods; for CL renal at 50 µM: male, Sprague-Dawley, rat, CLR (renal clearance), cumulative urinary excretion / AUC 0–80 min post-dose.

Data set [3] has as its target albumin in perfusate (Bos taurus, UniProt P02769). The data set can be described thus: Perfusate binding by ultrafiltration. It counts as in vitro ADME.

Sequence of albumin in perfusate (P02769 25-607): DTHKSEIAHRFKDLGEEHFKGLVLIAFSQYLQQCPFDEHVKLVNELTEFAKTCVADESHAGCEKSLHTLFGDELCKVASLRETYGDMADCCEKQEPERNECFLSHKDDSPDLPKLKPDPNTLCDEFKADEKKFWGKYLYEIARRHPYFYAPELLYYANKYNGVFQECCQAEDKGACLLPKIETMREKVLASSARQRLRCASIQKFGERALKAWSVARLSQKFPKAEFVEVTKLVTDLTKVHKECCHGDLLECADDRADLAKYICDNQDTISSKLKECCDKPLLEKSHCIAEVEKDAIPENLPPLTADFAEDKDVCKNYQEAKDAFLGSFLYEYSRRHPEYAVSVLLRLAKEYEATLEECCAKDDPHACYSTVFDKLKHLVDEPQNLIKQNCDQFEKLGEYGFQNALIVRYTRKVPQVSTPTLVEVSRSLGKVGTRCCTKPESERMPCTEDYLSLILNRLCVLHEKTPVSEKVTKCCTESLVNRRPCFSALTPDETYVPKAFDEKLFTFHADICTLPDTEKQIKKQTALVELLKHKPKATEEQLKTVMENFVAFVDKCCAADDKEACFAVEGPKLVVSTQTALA

With `O=C(O)c1cc2c(c3c1c([N+](=O)[O-])cc1c(O)cccc13)OCO2` [AA-Ia, aristolochic acid Ia], in data set [1], the “Amount in the 24 hr urine sample” value is recorded as 14.3 % of the dose and the “Average concentration in 24-hour collected urine” value (from here on “Average concentration”) was 7900 (1300) µg/Lt. Also, in data set [2] (Kidney A), the “Average amount in perfusate per 10-min period” value is 71.6 (31.0) nanomoles, the “Average amount in urine per 10-min period” value is given as 0.72 (0.11) nanomoles, the Concentration in perfusate is listed as 1.24 µM and the Concentration in urine is 0.68 µM. For the same compound, in data set [2] (Kidney A), the “Average excretion ratio (XR)” value is given as 12 (10). For the same compound, in data set [2] (Kidney B), the “Average amount in perfusate per 10-min period” value was 38 (10) nanomoles, the “Average amount in urine per 10-min period” value was 6.7 (2.6) nanomoles, the Concentration in perfusate turned out to be 0.42 µM and the Concentration in urine was 4.38 µM. Further, in data set [2] (Kidney B), the “Average excretion ratio (XR)” value is on record as 130 (77). Also, the “Concentration in the urines” value in data set [2] (rat A) is recorded as “ca. 1 µM”. The “Concentration in the urines” value in data set [2] (rat B) is listed as ~7 µM. In addition, the “fu (fraction unbound to albumin in perfusate)” value in data set [3] (ultrafiltration, perfusate) was 0.0220.
On to `O=C1Nc2cc3c(OS(=O)(=O)O)cccc3c3c4c(cc1c23)OCO4` [L-Ia-O-S, 8-hydroxy-3,4-methylenedioxy-10-amino-1-phenanthrenecarboxylic acid lactam O-sulfate], for which, in data set [1], the “Amount in the 24 hr urine sample” value is recorded as 0.09 % of the dose and the “Average concentration” value is recorded as 53 (24) µg/Lt.
Turning to `O=C(O)c1cc2c(c3c1ccc1c(O)cccc13)OCO2` [compound 9, 3,4-methylenedioxy-8-hydroxy-1-phenanthrene-1-carboxylic acid], the “Presence in collected rat urine” value in data set [1] is recorded as “could only occasionally be observed by UV detection”.
Consider `O=C1Nc2cc3c(OC4OC(C(=O)O)C(O)C(O)C4O)cccc3c3c4c(cc1c23)OCO4` [L-Ia-O-G, 8-hydroxy-3,4-methylenedioxy-10-amino-1-phenanthrene-carboxylic acid lactam O-glucuronide], for which, in data set [1], the “Amount in the 24 hr urine sample” value is 0.09 % of the dose and the “Average concentration” value is 66 (54) µg/Lt. In data set [2] (Kidney A), the “Average amount in urine per 10-min period” value was 0.019 (0.007) nanomoles and the Concentration in urine turned out to be 0.031 µM. Besides, in data set [2] (Kidney B), the “Average amount in urine per 10-min period” value was 0.012 (0.009) nanomoles, the Concentration in perfusate came out at 0.014 µM and the Concentration in urine was 0.021 µM.
As for aristolactam Ia [L-Ia], in data set [1], the “Amount in the 24 hr urine sample” value was 3.4 % of the dose and the “Average concentration” value is reported as 1600 (678) µg/Lt. Further, in data set [2] (Kidney A), the “Average amount in perfusate per 10-min period” value is given as 0.97 (0.52) nanomoles, the “Average amount in urine per 10-min period” value is listed as 0.10 (0.03) nanomoles, the Concentration in perfusate was 0.010 µM and the Concentration in urine was 0.16 µM. Besides, the “Average excretion ratio (XR)” value in data set [2] (Kidney A) is on record as 62 (50). Besides, in data set [2] (Kidney B), the “Average amount in perfusate per 10-min period” value is on record as 0.29 (0.09) nanomoles, the “Average amount in urine per 10-min period” value was 0.089 (0.071) nanomoles, the Concentration in perfusate is on record as 0.024 µM and the “Average excretion ratio (XR)” value is 160 (131).
Regarding `O=C(O)c1cc2c(c3c1c([N+](=O)[O-])cc1c(OS(=O)(=O)O)cccc13)OCO2` [AA-Ia-O-S, 8-hydroxy-3,4-methylenedioxy-10-nitro-1-phenanthrenecarboxylic acid O-sulfate], the “Presence in collected rat urine” value in data set [1] (listed as AA-Ia-O-S (5)) is “could only occasionally be observed by UV detection; also recorded: trace amounts”. The “Identification in the perfusate” value in data set [2] (IPK) is “could not be identified”. Moreover, in data set [2] (Kidney A), the “Average amount in urine per 10-min period” value was 0.36 (0.05) nanomoles and the Concentration in urine was determined as 0.36 µM. Besides, in data set [2] (Kidney B), the “Average amount in urine per 10-min period” value was 0.96 (0.28) nanomoles and the Concentration in urine is 0.74 µM.
Turning to `COc1cccc2c1cc([N+](=O)[O-])c1c(C(=O)O)cc3c(c12)OCO3` [AA-I, 8-methoxy-6-nitro-phenanthro[3,4-d]-1,3-dioxole-5-carboxylic acid], the “Average concentration” value in data set [1] was 68 (17) µg/Lt. Besides, in data set [2] (Kidney A), the “XR (excretion ratio = CLR/CLFILT)” value stood at 0.10, the “CLFILT (filtration clearance)” value worked out at 0.0146 mL/min, the “Cumulative excretion (urinary)” value came out at 0.063 % dose and the Kidney accumulation is on record as 68 % dose. In addition, in data set [2] (Kidney A), the “Average amount in perfusate per 10-min period” value is 1441 (139) nanomoles, the “Average amount in urine per 10-min period” value is 0.36 (0.05) nanomoles, the Concentration in perfusate amounted to 16.07 µM and the Concentration in urine is 0.48 µM. Also, in data set [2] (Kidney A), the “Cumulative AA-I excretion in the urine (Xu)” value was determined as 2.5 µmol, the “Average excretion ratio (XR)” value was 0.14 (0.05) and the CL renal at 50 µM was 0.0014 mL/min. Further, in data set [2] (Kidney B), the “XR (excretion ratio = CLR/CLFILT)” value is 0.26, the “CLFILT (filtration clearance)” value came out at 0.0138 mL/min, the “Cumulative excretion (urinary)” value was 0.162 % dose and the Kidney accumulation amounted to 53 % dose. For the same compound, in data set [2] (Kidney B), the “Average amount in perfusate per 10-min period” value is 2447 (298) nanomoles, the “Average amount in urine per 10-min period” value was 1.24 (0.32) nanomoles, the Concentration in perfusate is reported as 23.8 µM and the Concentration in urine stood at 0.94 µM. In data set [2] (Kidney B), the “Cumulative AA-I excretion in the urine (Xu)” value was 6.5 µmol, the “Average excretion ratio (XR)” value is 0.24 (0.05) and the CL renal at 50 µM stood at 0.003 mL/min. The “Perfusate concentration of AA-I” value in data set [2] (Rat A, at 75 min) was “ca. 16 µM”. In addition, the “Concentration of AA-I in the urines” value in data set [2] (Rat A) is given as ~0.5 µM. In data set [2] (Rat B, at 75 min), the “Perfusate concentration of AA-I” value is listed as ~23 µM. Also, the “Concentration of AA-I in the urines” value in data set [2] (Rat B) is ~1.2 µM. Further, the “Amounts of AA-I in perfusate and urines” value in data set [2] (end of the experiment (80 min)) is given as “less than 50 % of the dose”. In data set [2] (sample taken at 15 min), the “Perfusate concentration of AA-I” value was “ca. 28 µM”. In data set [3], this compound gave a fraction unbound of 0.0225.
As for `COc1cccc2c1cc1c3c(cc4c(c32)OCO4)C(=O)N1` [L-I, aristolactam I], in data set [1], the “Amount in the 24 hr urine sample” value was 0.01 % of the dose and the “Average concentration” value is 5.4 (3.8) µg/Lt. Moreover, in data set [2] (Kidney A), the “Average amount in perfusate per 10-min period” value is listed as 0.086 (0.062) nanomoles, the “Average amount in urine per 10-min period” value is reported as 0.029 (0.013) nanomoles, the Concentration in perfusate is on record as 0.002 µM and the Concentration in urine worked out at 0.053 µM. Moreover, the “Average excretion ratio (XR)” value in data set [2] (Kidney A) is 130 (85). Besides, in data set [2] (Kidney B), the “Average amount in perfusate per 10-min period” value is on record as 0.35 (0.05) nanomoles, the “Average amount in urine per 10-min period” value is listed as 0.034 (0.015) nanomoles, the Concentration in perfusate was found to be 0.018 µM and the Concentration in urine amounted to 0.055 µM. The “Average excretion ratio (XR)” value in data set [2] (Kidney B) is on record as 33 (22). This compound came in with a fraction unbound in data set [3] of 0.0235.

These data come from paper PMC3276251 (Chemical Research in Toxicology, 2011).
